Data on one compound can be found in patent US20060286237A1, “Use of divanillin as a flavouring agent” (priority 2003, published 2006).

Experiment [1] in a line: Taste threshold value determination.
Experiment [2] can be described thus: Sensory investigation of the taste impression of divanillin.
For experiment [3] the following is noted: as described in JP 07-179853 A2; cited from earlier work.

As to `COc1cc(C=O)cc(-c2cc(C=O)cc(OC)c2O)c1O` [divanillin, 6,6′-dihydroxy-5,5′-dimethoxy-[1,1′-biphenyl]-3,3′-dicarboxaldehyde], the taste threshold value result in experiment [1] is “below 1 ppm”. Moreover, in experiment [2] (higher concentration values preferred according to JP 07-179853 A2 (0.001 to 5 wt. %)), the “taste impression at higher concentration” value is on record as “diminishes in favour of a vanilla-like individual taste”. The taste impression result in experiment [2] (own investigations) was “pleasant, adherent and rich taste impression of creaminess, milk fattiness, butteriness and sweetness”. For the same compound, in experiment [3], the “odour and taste description” value was “odourless and tasteless”.
